This is an account of results in patent US6458802B1, “Antidepressant azaheterocyclymethyl derivatives of 2,3-dihydro-1,4-dioxino [2,3-f]quinoline” (Wyeth, priority 2001, dated 2002).

Counter-ions that a name gives are not always drawn. Like-named read-outs stand apart in the source and are kept apart here.

The target in data set [1] is T1, cloned human 5HT1A receptors (Homo sapiens, UniProt P08908).
T1 construct: expressed in transfected cells
T1 sequence (P08908 1-422): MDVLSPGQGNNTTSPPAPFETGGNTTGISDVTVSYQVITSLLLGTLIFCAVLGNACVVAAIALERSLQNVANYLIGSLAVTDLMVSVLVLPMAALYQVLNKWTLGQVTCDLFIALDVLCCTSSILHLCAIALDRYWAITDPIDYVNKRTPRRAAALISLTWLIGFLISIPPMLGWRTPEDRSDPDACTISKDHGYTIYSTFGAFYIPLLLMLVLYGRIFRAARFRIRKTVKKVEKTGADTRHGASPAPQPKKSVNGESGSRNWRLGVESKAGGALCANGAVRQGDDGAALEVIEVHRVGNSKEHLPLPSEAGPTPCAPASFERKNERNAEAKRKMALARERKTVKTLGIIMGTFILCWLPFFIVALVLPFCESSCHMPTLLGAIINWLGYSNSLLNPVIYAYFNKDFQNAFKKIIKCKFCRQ
Nature of the data set: 35S-GTPγS binding assay, antagonist activity at 5HT1A receptors. It counts as biochemical. To be noted: for 5HT1A Function (Imax) / Emax: maximum inhibitory effect in 35S-GTPγS binding versus 8-OH-DPAT; for IC50: 35S-GTPγS binding, reversal of the effects of the standard agonist 8-OH-DPAT, membranes with cloned human 5HT1A receptors, read-out: 5HT1A Function IC50; for Emax: read-out: 5HT1A Function (Imax). How it is done:
Antagonist activity at 5HT1A receptors was established by using a ^35S-GTPγS binding assay similar to that used by Lazareno and Birdsall (Br. J. Pharmacol. 109: 1120, 1993), in which the test compound's ability to affect the binding of 35S-GTPγS to membranes containing cloned human 5HT1A receptors was determined. Agonists produce an increase in binding whereas antagonists produce no increase but rather reverse the effects of the standard agonist 8-OH-DPAT. The test compound's maximum inhibitory effect is represented as the 1max, while its potency is defined by the IC50.
A general note: Binding of GTPγS marks nucleotide exchange on a G protein.

The next data set deals with T2, human 5HT1A receptors (Homo sapiens, UniProt P08908).
T2 construct: expressed in transfected cells; host or cells: CHO cells
T2 sequence (P08908 1-422): T1 sequence (P08908 1-422)
Nature of the data set: [3H] 8-OH-DPAT displacement from the 5HT1A serotonin receptor (transfected CHO cells). It counts as binding. From the text:
High affinity for the serotonin 5HT1A receptor was established by testing the claimed compound's ability to displace [^3H] 8-OH-DPAT (dipropylamino-tetralin) from the 5HT1A serotonin receptor following a modification of the procedure of Hall et al., J. Neurochem. 44, 1685 (1985) which utilizes CHO cells stably transfected with human 5HT1A receptors.

A further data set addresses T3, serotonin transporter (Rattus norvegicus, UniProt P31652).
T3 construct: displace ^3H-paroxetine from male rat frontal cortical membranes; from tissue; host or cells: male rat frontal cortex membranes
The data set is described as follows: 3H-paroxetine displacement, affinity for the serotonin transporter. It counts as binding.

Where [2] appears, read: displacement of [3H] 8-OH-DPAT, CHO cells stably transfected with human 5HT1A receptors, read-out: 5HT1A Receptor Affinity KI.

T3 sequence (P31652 whole entry): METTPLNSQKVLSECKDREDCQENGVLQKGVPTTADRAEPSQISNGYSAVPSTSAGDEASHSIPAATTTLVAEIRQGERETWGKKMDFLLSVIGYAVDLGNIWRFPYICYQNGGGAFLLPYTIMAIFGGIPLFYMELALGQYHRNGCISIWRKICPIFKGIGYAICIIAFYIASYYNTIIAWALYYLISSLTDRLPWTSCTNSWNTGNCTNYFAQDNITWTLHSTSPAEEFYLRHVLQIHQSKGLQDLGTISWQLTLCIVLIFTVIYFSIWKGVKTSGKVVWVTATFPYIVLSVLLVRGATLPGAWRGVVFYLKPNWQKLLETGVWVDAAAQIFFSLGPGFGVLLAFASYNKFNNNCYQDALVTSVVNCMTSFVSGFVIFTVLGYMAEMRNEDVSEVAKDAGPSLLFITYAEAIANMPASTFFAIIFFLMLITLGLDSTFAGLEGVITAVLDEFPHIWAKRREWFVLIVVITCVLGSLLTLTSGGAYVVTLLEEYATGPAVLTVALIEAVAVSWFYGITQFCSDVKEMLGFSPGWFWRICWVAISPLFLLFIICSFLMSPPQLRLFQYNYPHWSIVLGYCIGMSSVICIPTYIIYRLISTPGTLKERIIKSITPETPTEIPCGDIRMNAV

Turning to “2-({4-[(6-Chloro-1H-indol-3-yl)methyl]piperidin-1-yl}methyl)-8-methyl-2,3-dihydro[1,4]dioxino[2,3-f]quinoline [Example 20]”, the “5HT1A Function (Imax)” value in data set [1] is reported as “(100)”.
As to “2-({4-[(7-Ethyl-1H-indol-3-yl)methyl]piperidin-1-yl}methyl)-8-methyl-2,3-dihydro[1,4]dioxino[2,3-f]quinoline [Example 19]”, the “5HT1A Function (Imax)” value in data set [1] is “(100)”.
One may read the melting point as the temperature, or range, at which the solid turns liquid. For `NC(=O)c1ccc2[nH]cc(C3=CCN(C[C@H]4COc5ccc6ncccc6c5O4)CC3)c2c1` (as salt: fumarate) (hydrate or solvate) [Example 6, 3-[1-(2,3-Dihydro[1,4]dioxino[2,3-f]qiuinolin-2-ylmethyl)-1,2,3,6-tetrahydropyridin-4-yl]-1H-indole-5-carboxylic Acid Amide], the melting point came out at 219 °C.
The same measure, in the same setting: for `Cc1ccc2c3c(ccc2n1)OCC(CN1CC=C(c2c[nH]c4ccc(F)cc24)CC1)O3` (stereo not drawn) (as salt: fumarate) (hydrate or solvate) [Example 11, 2-[4-(5-Fluoro-1H-indol-3-yl)-3,6-dihydro-2H-pyridin-1-ylmethyl]-8-methyl-2,3-dihydro[1,4]dioxino[2,3-f]quinoline] the value was 198 to 199 °C; for `Cc1ccc2c3c(ccc2n1)OCC(CN1CCC(c2c[nH]c4ccccc24)CC1)O3` (stereo not drawn) (as salt: fumarate) (hydrate or solvate) [Example 12, 2-[4-(1H-indol-3-yl)piperidin-1-ylmethyl]-8-methyl-2,3-dihydro[1,4]dioxino[2,3-f]quinoline], 206 °C; for `CCc1ccc2c3c(ccc2n1)OCC(CN1CC=C(c2c[nH]c4ccc(F)cc24)CC1)O3` (stereo not drawn) (as salt: fumarate) (hydrate or solvate) [Example 14, 8-Ethyl-2-[(4-(5-fluoro-1H-indol-3-yl)-3,6-dihydropyridin-1(2H)-yl)methyl]-2,3-dihydro[1,4]dioxino[2,3-f]quinoline], 143 to 144 °C.
Compound `Fc1ccc2[nH]cc(C3=CCN(CC4COc5cc(F)c6ncccc6c5O4)CC3)c2c1` (stereo not drawn) (as salt: fumarate) (hydrate or solvate) [Example 15, 6-Fluoro-2-[(4-(5-fluoro-1H-indol-3-yl)-3,6-dihydropyridin-1(2H)-yl)methyl]-2,3-dihydro[1,4]dioxino[2,3-f]quinoline] showed a melting point of 190 °C.
Broadly, the Ki is a measure of affinity in units of concentration, obtained from inhibition or displacement. For orientation: IC50 means the concentration at which inhibition is half-maximal. In turn, `COc1ccc2[nH]cc(C3=CCN(C[C@H]4COc5ccc6ncccc6c5O4)CC3)c2c1` [Example 1] returned an inhibitory constant (Ki) at human 5HT1A receptors of 0.00929 µM. Affinity at serotonin transporter was put at a Ki of 0.054 µM. In addition, in data set [1], the 50% inhibitory concentration (IC50) came out at 0.322 µM and the Emax was 100%.
`Fc1ccc2[nH]cc(C3=CCN(C[C@H]4COc5ccc6ncccc6c5O4)CC3)c2c1` [Example 2] showed an inhibition constant (Ki) on human 5HT1A receptors of 0.00988 µM. For the same compound, the inhibition constant Ki at serotonin transporter came out at 0.00282 µM. Also, in data set [1], the 50% inhibitory concentration (IC50) stood at 0.243 µM and the Emax amounted to 100%.
Take `Fc1ccc2[nH]cc(CC3CCN(C[C@H]4COc5ccc6ncccc6c5O4)CC3)c2c1` [Example 3]: the Ki on human 5HT1A receptors (setting [2]) was 0.0172 µM. Besides, at serotonin transporter (displacement of 3H-paroxetine from male rat frontal cortical membranes, read-out: 5-HT Transporter Affinity KI), the inhibition constant Ki came out at 0.0012 µM. Moreover, in data set [1], the 50% inhibitory concentration (IC50) was found to be 0.12 µM and the Emax amounted to 90%.
Regarding `C1=C(c2c[nH]c3ccccc23)CCN(C[C@H]2COc3ccc4ncccc4c3O2)C1` [Example 4, 2-[1,4-(1H-indol-3-yl)-3,6-dihydro-2H-pyridin-1-ylmethyl]-2,3-dihydro[1,4]dioxino[2,3-f]quinoline], the results for the inhibition constant Ki at human 5HT1A receptors and on serotonin transporter were 0.00484 µM and 0.00338 µM, respectively. The IC50 in data set [1] is 0.226 µM. Further, the Emax in data set [1] stood at 87%.
For the compound `N#Cc1ccc2[nH]cc(C3=CCN(CC4COc5ccc6ncccc6c5O4)CC3)c2c1` (stereo not drawn) [Example 5, 3-[1-(2,3-Dihydro[1,4]dioxino[2,3-f]quinolin-2-ylmethyl)-1,2,3,6-tetrahydropyridin-4-yl]-1H-indole-5-carbonitrile], the Ki at human 5HT1A receptors (setting [2]) worked out at 0.0193 µM; on serotonin transporter, 0.00254 µM.
For the compound `NC(=O)c1ccc2[nH]cc(C3=CCN(C[C@H]4COc5ccc6ncccc6c5O4)CC3)c2c1` [Example 6, 3-[1-(2,3-Dihydro[1,4]dioxino[2,3-f]qiuinolin-2-ylmethyl)-1,2,3,6-tetrahydropyridin-4-yl]-1H-indole-5-carboxylic Acid Amide], the Ki at human 5HT1A receptors (setting [2]) was 0.00944 µM; at serotonin transporter, 0.00354 µM.
With `Cn1cc(C2=CCN(C[C@H]3COc4ccc5ncccc5c4O3)CC2)c2cc(F)ccc21` [Example 7, 2-[4-(5-Fluoro-1-methyl-1H-indol-3-yl)-3,6-dihydro-2H-pyridin-1-ylmethyl]-2,3-dihydro[1,4]dioxino[2,3-f]qiuinoline], at human 5HT1A receptors, the affinity, expressed as Ki, was 0.0147 µM. The affinity at serotonin transporter corresponds to a Ki of 0.0085 µM. Also, in data set [1], the 50% inhibitory concentration (IC50) turned out to be 1.08 µM and the Emax was 100%.
Consider `Cc1ccc2c3c(ccc2n1)OCC(CN1CC=C(c2c[nH]c4cc(F)ccc24)CC1)O3` (stereo not drawn) [Example 10, 2-[4-(6-Fluoro-1H-indol-3-yl)-3,6-dihydro-2H-pyridin-1-ylmethyl]-8-methyl-2,3-dihydro[1,4]dioxino[2,3-f]quinoline], for which the Ki at human 5HT1A receptors was found to be 0.0067 µM; on serotonin transporter it was 0.008 µM. The IC50 in data set [1] was found to be 0.259 µM. Besides, the Emax in data set [1] is 100%.
As to `Cc1ccc2c3c(ccc2n1)OCC(CN1CC=C(c2c[nH]c4ccc(F)cc24)CC1)O3` (stereo not drawn) [Example 11, 2-[4-(5-Fluoro-1H-indol-3-yl)-3,6-dihydro-2H-pyridin-1-ylmethyl]-8-methyl-2,3-dihydro[1,4]dioxino[2,3-f]quinoline], the inhibition constant (Ki) at human 5HT1A receptors was 0.0132 µM. For the same compound, the Ki at serotonin transporter turned out to be 0.00551 µM. In addition, in data set [1], the IC50 came out at 0.12 µM and the Emax turned out to be 100%.
For `Cc1ccc2c3c(ccc2n1)OCC(CN1CCC(c2c[nH]c4ccccc24)CC1)O3` (stereo not drawn) [Example 12, 2-[4-(1H-indol-3-yl)piperidin-1-ylmethyl]-8-methyl-2,3-dihydro[1,4]dioxino[2,3-f]quinoline], the inhibitory constant (Ki) on human 5HT1A receptors is 0.00998 µM; on serotonin transporter, 0.00239 µM. Moreover, the IC50 in data set [1] turned out to be 0.0857 µM. For the same compound, the Emax in data set [1] was found to be 100%.
Turning to `CCc1ccc2c3c(ccc2n1)OCC(CN1CC=C(c2c[nH]c4ccc(F)cc24)CC1)O3` (stereo not drawn) [Example 14, 8-Ethyl-2-[(4-(5-fluoro-1H-indol-3-yl)-3,6-dihydropyridin-1(2H)-yl)methyl]-2,3-dihydro[1,4]dioxino[2,3-f]quinoline], the Ki at human 5HT1A receptors turned out to be 0.0154 µM. Also, the affinity at serotonin transporter, expressed as Ki, was 0.014 µM. Further, in data set [1], the IC50 came out at 0.166 µM and the Emax stood at 100%.
In the case of `Fc1ccc2[nH]cc(C3=CCN(CC4COc5cc(F)c6ncccc6c5O4)CC3)c2c1` (stereo not drawn) [Example 15, 6-Fluoro-2-[(4-(5-fluoro-1H-indol-3-yl)-3,6-dihydropyridin-1(2H)-yl)methyl]-2,3-dihydro[1,4]dioxino[2,3-f]quinoline], on human 5HT1A receptors, the inhibition constant Ki is 0.0364 µM. At serotonin transporter, this compound yielded a Ki of 0.0015 µM. Moreover, in data set [1], the 50% inhibitory concentration (IC50) stood at 1.03 µM and the Emax came out at 100%.
For the compound `COc1cc2c(c3cccnc13)O[C@@H](CN1CC=C(c3c[nH]c4ccc(F)cc34)CC1)CO2` [Example 17, 2-[4-(5-Fluoro-1H-indol-3-yl)-3,6-dihydro-2H-pyridin-1-ylmethyl]-6-methoxy-2,3-dihydro[1,4]dioxino[2,3-f]qiuinoline], the Ki on human 5HT1A receptors (setting [2]) worked out at 0.317 µM; at serotonin transporter, 0.00474 µM. Moreover, the IC50 in data set [1] was 1.41 µM. Besides, the Emax in data set [1] came to 100%.
Regarding `Nc1ccc2c3c(ccc2n1)OC[C@H](CN1CC=C(c2c[nH]c4ccc(F)cc24)CC1)O3` [Example 18, 2-[4-(5-Fluoro-1H-indol-3-yl)-3,6-dihydro-2H-pyridin-1-ylmethyl]-2,3-dihydro[1,4]dioxino[2,3-f]guinolin-8-ylamine], the inhibitory constant (Ki) at human 5HT1A receptors worked out at 0.0109 µM; at serotonin transporter it was 0.00066 µM. Further, the IC50 in data set [1] came to 0.0849 µM. Moreover, the Emax in data set [1] is 100%.
Compound `Cc1ccc2[nH]cc(C3=CCN(CC4COc5ccc6nc(C)ccc6c5O4)CC3)c2c1` (stereo not drawn) [Example 22, 2-[4-(5-Methyl-1H-indol-3-yl)-3,6-dihydro-2H-pyridin-1-ylmethyl]-8-methyl-2,3-dihydro[1,4]dioxino[2,3-f]quinoline] gave an inhibition constant Ki on human 5HT1A receptors of 0.0347 µM. On serotonin transporter, this compound had an inhibitory constant (Ki) of 0.059 µM. Also, in data set [1], the 50% inhibitory concentration (IC50) stood at 0.503 µM and the Emax was determined as 100%.
